Assay results taken from PubChem BioAssay (NCI).
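Growth conditions: 96-well plates. Treatment: test compound, 48 hours, 5 concentrations. Analysis: linear interpolation between bracketing concentrations; unreached endpoints set to highest concentration. GI50 is the concentration that inhibits growth by half. TGI marks complete inhibition of growth.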 Calls of active or inactive are those of the source. Rule as the data show it: active = GI50 below about 0.43 µM; inactive = the rest.

Experiments:
Assay in all cases: NCI tumour cell line growth inhibition, 48 h
DLD-1 colon = test system: DLD-1 colon
HCC-2998 colon = test system: HCC-2998 colon
MOLT-4 leukemia = test system: MOLT-4 leukemia
SNB-78 CNS = test system: SNB-78 CNS
TK-10 renal = test system: TK-10 renal
LXFL 529 NSCLC = test system: LXFL 529 NSCLC
HS 578T breast = test system: HS 578T breast
MCF7 breast = test system: MCF7 breast
MDA-MB-435 = test system: MDA-MB-435

| Compound | TGI (DLD-1 colon) | TGI (HCC-2998 colon) | TGI (MOLT-4 leukemia) | TGI (SNB-78 CNS) | TGI (TK-10 renal) | TGI (LXFL 529 NSCLC) | GI50 (HCC-2998 colon) | GI50 (HS 578T breast) | TGI (HS 578T breast) | GI50 (MCF7 breast) | TGI (MCF7 breast) | GI50 (MDA-MB-435) | TGI (MDA-MB-435) | GI50 (MOLT-4 leukemia) | GI50 (TK-10 renal) | outcome (HCC-2998 colon) | outcome (HS 578T breast) |
| --- | --- | --- | --- | --- | --- | --- | --- | --- | --- | --- | --- | --- | --- | --- | --- | --- | --- |
| O=[N+]([O-])c1ccc(C=NC2CCCCC2)cc1 | > 100 µM | > 100 µM | > 100 µM | > 100 µM | > 100 µM | – | – | – | – | – | – | – | – | – | – | – | – |
| CCCC1N2CCCCC2[C@@H]2c3[nH]c4ccccc4c3CCN12 (stereo not given in full) | > 100 µM | > 100 µM | > 100 µM | > 100 µM | – | > 100 µM | – | – | – | – | – | – | – | – | – | – | – |
| CN(C)CCNC(=O)c1cccc2ccc(-c3ccncc3)nc12 | 31 µM | 10.2 µM | 1.37 µM | > 100 µM | 5.57 µM | – | – | – | – | – | – | – | – | – | – | – | – |
| C=C(C[C@](O)(C(=O)/C=C/c1ccc(Cl)cc1)C(=O)OC)c1ccccc1 | – | 3.42 µM | 8.35 µM | – | 6.21 µM | – | 1.84 µM | 4.11 µM | 34.6 µM | 0.456 µM | 4.38 µM | 1.95 µM | 4.84 µM | 2.59 µM | 2.33 µM | – | – |
| O=C(O)C(CS)Nc1c2ccccc2nc2ccccc12 (stereo not given) | > 100 µM | > 100 µM | > 100 µM | – | > 100 µM | > 100 µM | – | – | – | – | – | – | – | – | – | – | – |
| C[C@@H]1OC(=O)N2CCCC(=C3SCCCS3)C12 (stereo not given in full) | – | – | > 100 µM | > 100 µM | > 100 µM | > 100 µM | – | – | – | – | – | – | – | – | – | – | – |
| O=C(O)CCNC1CCCCC1 | – | > 100 µM | > 100 µM | – | > 100 µM | – | > 100 µM | > 100 µM | > 100 µM | > 100 µM | > 100 µM | > 100 µM | > 100 µM | > 100 µM | > 100 µM | – | – |
| CC/C=C\C[C@H](F)C/C=C1/C(=O)C=C[C@@H]1C/C=C\CCCC(=O)O | – | 12.2 µM | 12 µM | – | 27.4 µM | – | 6.93 µM | 13 µM | > 32.5 µM | 1.32 µM | > 32.5 µM | 4.06 µM | 11.3 µM | 1.14 µM | 12.2 µM | – | – |
| CS(=O)(=O)c1ccc(-n2nc(C(F)(F)F)cc2OC2CCCC2)cc1 | – | 73.5 µM | > 100 µM | – | 93.9 µM | – | 27 µM | > 100 µM | > 100 µM | 25.4 µM | 80.2 µM | 59.6 µM | > 100 µM | 35.9 µM | 36.9 µM | – | – |
| Cc1cc2c(cc1Cl)SC1=NN(C)S(=O)N1S2(=O)=O (stereo not given) | – | > 100 µM | > 100 µM | – | > 100 µM | – | > 100 µM | > 100 µM | > 100 µM | > 100 µM | > 100 µM | > 100 µM | > 100 µM | > 100 µM | > 100 µM | – | – |
| CCN(CC)CCCC(C)Nc1c2ccc(Cl)cc2nc2ccc(O)cc12 (stereo not given) | – | 6.97 µM | 13.6 µM | – | 3.91 µM | – | 2.44 µM | 1.68 µM | 5.55 µM | 1.4 µM | 5.48 µM | 1.77 µM | 3.32 µM | 1.31 µM | 1.74 µM | – | – |
| COc1cc2ncn(-c3cc(OCc4cccs4)c(C(N)=O)s3)c2cc1OC | – | > 25 µM | > 25 µM | – | > 25 µM | – | 2.29 µM | 5.94 µM | > 25 µM | 0.752 µM | > 12.5 µM | 0.502 µM | 1.71 µM | 1.07 µM | 9.21 µM | – | – |
| C[N+]1=C(/C=C/c2ccc(O)c3ncccc23)C(C)(C)c2ccccc21 | – | 6.73 µM | > 100 µM | – | 14.9 µM | – | 2.44 µM | 2.14 µM | 8.14 µM | 2.71 µM | 10.7 µM | 2.35 µM | 7.01 µM | 3.14 µM | 3.43 µM | – | – |
| O=C(CCc1nnc2sc(-c3ccc(Cl)cc3Cl)nn12)c1nc2ccccc2[nH]1 | – | 2.92 µM | – | – | 2.77 µM | – | 1.42 µM | 2.23 µM | 8.29 µM | 0.466 µM | 2.45 µM | 0.382 µM | 2.22 µM | 0.29 µM | 1.29 µM | – | – |
| Nc1nccc(-c2c(-c3ccc(F)cc3)ncn2C2CCC(O)CC2)n1 (stereo not given) | – | > 25 µM | > 25 µM | – | 24.4 µM | – | 17.3 µM | 8.21 µM | > 25 µM | 0.677 µM | > 9.14 µM | 6.75 µM | > 25 µM | 22.5 µM | 3.72 µM | – | – |
| COC1(OC)CC2OC1C1N=NN(C(=O)OC(C)(C)C)C21 (stereo not given) | > 100 µM | > 100 µM | > 100 µM | > 100 µM | – | > 100 µM | – | – | – | – | – | – | – | – | – | – | – |
| COc1ccc(C(=O)C#Cc2cnc(OC)nc2OC)cc1 | – | 3.83 µM | – | – | – | – | – | – | 27.7 µM | – | 2.54 µM | 28200 µM | – | 17900 µM | 17700 µM | inactive | inactive |
| COc1ccc(-c2onc(N)c2-c2cc(OC)c3c(c2)OCO3)cc1 | – | > 87.7 µM | > 65.5 µM | – | > 100 µM | – | 3.7 µM | 2.65 µM | > 100 µM | 0.932 µM | > 100 µM | 0.29 µM | 1.13 µM | 1.93 µM | 8.49 µM | – | – |
| CC(C)(C)c1cc(CCC(=O)Nc2ccc(Cl)cc2)nc(NC#N)n1 | > 100 µM | – | > 100 µM | > 100 µM | > 100 µM | > 100 µM | – | – | – | – | – | – | – | – | – | – | – |
| Cc1ccc(-c2nc3nc(-c4ccccc4)nc(N4CCCNCC4)c3o2)cc1 | – | 4.17 µM | 3.15 µM | – | 3.14 µM | – | 2.04 µM | 1.83 µM | 4.02 µM | 1.48 µM | 3.5 µM | 1.93 µM | 3.42 µM | 1.44 µM | 1.73 µM | – | – |
| CCCC(=O)OCC1OC(n2cnc3c(=S)nc[nH]c32)C(OC(=O)CCC)C1OC(=O)CCC (stereo not given) | – | > 100 µM | 39.1 µM | – | > 100 µM | – | 2.92 µM | > 100 µM | > 100 µM | 1.95 µM | > 100 µM | 3.55 µM | > 100 µM | 3.06 µM | 2.78 µM | – | – |
| N#CSC1CCCCNC1=O (stereo not given) | – | 32.4 µM | 15 µM | – | 30.7 µM | – | – | – | 50.4 µM | – | 18.3 µM | – | 34.8 µM | – | – | – | – |
| COc1cc2cc(Oc3ccc(NC(=O)Nc4ccc(Cl)c(C(F)(F)F)c4)cc3)c(C)nc2cc1OCCN1CCOCC1 | – | 11.1 µM | 10.5 µM | – | 35.2 µM | – | 3.68 µM | 1.83 µM | 5.11 µM | 1.26 µM | 3.33 µM | 1.94 µM | 4.1 µM | 1.48 µM | 4.97 µM | – | – |
